For 22 molecules, IC50 results are on record in patent US20250368624A1, “M24B AMINOPEPTIDASE INHIBITORS FOR CARD8 INFLAMMASOME ACTIVATION” (Memorial Sloan-Kettering Cancer Center, priority 2022, published 2025).

Each structure is given as a SMILES string.

The target in one assay is XPNPEP1 (Homo sapiens (Human), UniProt Q9NQW7). The assay is described as follows: XPNPEP1 substrate assay (H-Lys(abz)-Pro-Pro-pNA). It is filed as biochemical. The following applies: XPNPEP1 3.5 nM, substrate 100 μM, 60 mins. The protocol:
Protein purification. Human prolidase (PEPD) was generated and purified. XPNPEP1 in pET15-b containing a 6× His tag was expressed in E. coli Rosetta DE3 cells. Cells were induced with IPTG for 16 h at 37° C., pelleted and lysed in buffer A (20 mM Tris-HCl (pH 7.9), 500 mM NaCl, and 10% (v/v) glycerol) by sonication. Affinity purification chromatography was performed using TALON resin and according to previously published protocols (Li et al., 2008).
(§1) Substrate assays. For the PEPD assay, a solution of substrate (Ala-Pro) was prepared in DMSO. 24 μL of 50 nM recombinant human PEPD were added to a 384-well, black, clear-bottom plate (Corning) with 1 μL dipeptide Ala-Pro (final conc. 40 μM). Alanine liberated was measured as increasing fluorescence signal (Resorufin, Ex/Em: 535/587 nm) recorded at 25° C. using an L-alanine assay kit (Abcam, ab83394) at 25° C. according to manufacturer's instructions. For the AMC reporter assays, experiments were performed with cell lysates. 5 μL solution of substrate (2.5 mM Ala-AMC) was added the mixture of 10 μL HEK293T cell lysates (2.5 mg/ml) and 10 μL of indicated compounds in a 384-well, black, clear-bottom plate (Corning) to initiate the reaction. Substrate cleavage was measured as increasing fluorescence signal (Ex/Em: 380/460 nm) recorded at 25° C. for 20 mins. For XPNPEP1 enzymes (XPNPEP1 3.5 nM) were plated on a black 384-well clear bottom plate and treated with the indicated doses of compounds. H-Lys(abz)-Pro-Pro-pNA substrate was added to a final concentration of 100 μM, and fluorescence was monitored (Ex/Em: 320/410) for 60 mins.

The target in the next assay is recombinant human PEPD (Homo sapiens (Human), UniProt P12955). The assay is described as follows: PEPD substrate assay (Ala-Pro cleavage, L-alanine assay kit). The following applies: 50 nM recombinant human PEPD, Ala-Pro 40 μM, 25° C. In kind it is biochemical. On the procedure: Protein purification. Human prolidase (PEPD) was generated and purified. XPNPEP1 in pET15-b containing a 6× His tag was expressed in E. coli Rosetta DE3 cells.
Chain of recombinant human PEPD (P12955 whole entry): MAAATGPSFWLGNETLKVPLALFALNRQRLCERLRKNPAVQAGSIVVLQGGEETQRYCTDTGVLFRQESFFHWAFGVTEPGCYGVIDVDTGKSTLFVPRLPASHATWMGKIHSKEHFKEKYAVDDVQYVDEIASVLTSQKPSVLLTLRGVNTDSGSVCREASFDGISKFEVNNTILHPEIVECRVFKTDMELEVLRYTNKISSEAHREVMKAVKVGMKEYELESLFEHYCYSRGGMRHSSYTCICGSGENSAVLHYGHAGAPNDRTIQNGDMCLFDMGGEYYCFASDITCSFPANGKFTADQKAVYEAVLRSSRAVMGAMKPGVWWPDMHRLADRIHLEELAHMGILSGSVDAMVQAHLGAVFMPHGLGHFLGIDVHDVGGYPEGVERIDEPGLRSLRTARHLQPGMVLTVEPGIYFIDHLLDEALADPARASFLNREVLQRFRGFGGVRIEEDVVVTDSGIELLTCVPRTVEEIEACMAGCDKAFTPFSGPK
as §1, with “Alanine liberated was measured as increasing fluorescence signal (Resorufin, Ex/Em: 535/587 nm) recorded at 25° C. using an L-alanine assay kit (Abcam, ab83394) at 25° C. according to manufacturer's instructions.” left out, “For XPNPEP1 enzymes (XPNPEP1 3.5 nM) were plated on a black 384-well clear bottom plate and treated with the indicated doses of compounds.” left out

Chain of XPNPEP1 (Q9NQW7 whole entry): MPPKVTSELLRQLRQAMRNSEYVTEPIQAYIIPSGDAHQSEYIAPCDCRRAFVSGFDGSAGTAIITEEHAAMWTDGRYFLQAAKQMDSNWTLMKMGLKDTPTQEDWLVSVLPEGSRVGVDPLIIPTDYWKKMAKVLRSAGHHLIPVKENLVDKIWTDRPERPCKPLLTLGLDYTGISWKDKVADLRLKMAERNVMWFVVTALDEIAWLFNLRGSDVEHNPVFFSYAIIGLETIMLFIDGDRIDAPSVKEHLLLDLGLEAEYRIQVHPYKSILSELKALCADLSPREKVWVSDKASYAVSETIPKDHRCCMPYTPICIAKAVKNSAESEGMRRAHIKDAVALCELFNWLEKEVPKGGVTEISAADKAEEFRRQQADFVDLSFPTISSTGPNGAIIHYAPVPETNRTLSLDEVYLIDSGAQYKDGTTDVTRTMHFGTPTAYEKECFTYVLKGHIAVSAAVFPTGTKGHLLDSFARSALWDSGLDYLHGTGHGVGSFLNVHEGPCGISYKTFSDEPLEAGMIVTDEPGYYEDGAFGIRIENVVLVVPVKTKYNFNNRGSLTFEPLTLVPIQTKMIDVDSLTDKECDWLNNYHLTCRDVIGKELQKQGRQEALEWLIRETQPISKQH

On to `COC(=O)[C@@H]1C[C@H](F)CN1C(=O)[C@@H](O)[C@H](N)CC(C)C` [CQ35, Methyl (2S,4S)-1-((2S,3R)-3-amino-2-hydroxy-5-methylhexanoyl)-4-fluoropyrrolidine-2-carboxylate], for which the IC50 – broadly, the point on the concentration scale where inhibition reaches its midpoint – against XPNPEP1 turned out to be 74 µM; at recombinant human PEPD it was 0.84 µM.
As to `COC(=O)[C@@H]1CC2(CC2)CN1C(=O)[C@@H](O)[C@H](N)CC(C)C` [CQ36, Methyl (S)-5-((2S,3R)-3-amino-2-hydroxy-5-methylhexanoyl)-5-azaspiro[2.4]heptane-6-carboxylate], the figures for the IC50 against XPNPEP1 and on recombinant human PEPD were 324 µM and 1 µM, respectively.
With `COC(=O)[C@@H]1C[C@H](C)CN1C(=O)[C@@H](O)[C@H](N)CC(C)C` [CQ38, Methyl (2S,4S)-1-((2S,3R)-3-amino-2-hydroxy-5-methylhexanoyl)-4-methylpyrrolidine-2-carboxylate], the half-maximal inhibitory concentration (IC50) against XPNPEP1 was determined as 154 µM; at recombinant human PEPD it was 2.2 µM.
On the same counts, the results for `COC(=O)[C@@H]1CCCN1C(=O)[C@@H](O)[C@H](N)Cc1ccccc1` [CQ42, Methyl ((2S,3R)-3-amino-2-hydroxy-4-phenylbutanoyl)-L-prolinate] are 241 µM and 7.6 µM.
Taken in the same sequence, the figures for `COC(=O)[C@@H]1CCCN1C(=O)[C@@H](O)[C@H](N)CCC(F)(F)F` [CQ43, Methyl ((2S,3R)-3-amino-6,6,6-trifluoro-2-hydroxyhexanoyl)-L-prolinate] were 115 µM and 1.3 µM.
On the same counts, the results for `COC(=O)[C@@H]1CCCN1C(=O)[C@@H](O)[C@H](N)CC(C)(C)C` [CQ45, Methyl ((2S,3R)-3-amino-2-hydroxy-5,5-dimethylhexanoyl)-L-prolinate] are 57 µM and 1.5 µM.
`COC(=O)[C@@H]1CCCN1C(=O)[C@@H](O)[C@H](N)C(C)C` [CQ59, Methyl ((2S,3R)-3-amino-2-hydroxy-4-methylpentanoyl)-L-prolinate]: the figures for the half-maximal inhibitory concentration (IC50) against XPNPEP1 and at recombinant human PEPD were 190 µM and 1.8 µM, respectively.
Taken in the same sequence, the figures for `CCCC[C@@H](N)[C@H](O)C(=O)N1CCC[C@H]1C(=O)OC` [CQ63] were 92 µM and 0.53 µM.
Consider `COC(=O)[C@@H]1CCCN1C(=O)[C@@H](O)[C@H](N)c1ccccc1` [CQ64, Methyl ((2S,3R)-3-amino-2-hydroxy-3-phenylpropanoyl)-L-prolinate], for which the results for the half-inhibitory concentration (IC50) on XPNPEP1 and at recombinant human PEPD were 203 µM and 2.8 µM, respectively.
On the same counts, the results for `COC(=O)[C@@H]1CCCN1C(=O)[C@@H](O)[C@H](N)c1ccco1` [CQ68, Methyl ((2S,3S)-3-amino-3-(furan-2-yl)-2-hydroxypropanoyl)-L-prolinate] are 69 µM and 1.7 µM.
On the same counts, the results for `COC(=O)[C@@H]1CCCN1C(=O)[C@@H](O)[C@H](N)c1ccc2ccoc2c1` [CQ69, Methyl ((2S,3R)-3-amino-3-(benzofuran-6-yl)-2-hydroxypropanoyl)-L-prolinate] are 47 µM and 1.8 µM.
`COC(=O)[C@@H]1CCCN1C(=O)[C@@H](O)[C@H](N)c1cccs1` [CQ70, Methyl ((2S,3S)-3-amino-2-hydroxy-3-(thiophen-2-yl)propanoyl)-L-prolinate]: the IC50 against XPNPEP1 is 65 µM; at recombinant human PEPD, 2 µM.
Turning to `CC(C)C[C@H](NC(=O)[C@@H]1CCCN1C(=O)[C@@H](O)[C@H](N)CC(C)C)C(N)=O` [CQ96, (S)-1-((2S,3R)-3-amino-2-hydroxy-5-methylhexanoyl)-N—((S)-1-amino-4-methyl-1-oxopentan-2-yl)pyrrolidine-2-carboxamide], the results for the IC50 against XPNPEP1 and on recombinant human PEPD were 10 µM and 7.5 µM, respectively.
For `CC(C)C[C@H](NC(=O)[C@@H]1CCCN1C(=O)[C@@H](O)[C@H](N)CC(C)C)C(=O)N(C)C` [CQ109, (S)-1-((2S,3R)-3-amino-2-hydroxy-5-methylhexanoyl)-N—((S)-1-(dimethylamino)-4-methyl-1-oxopentan-2-yl)pyrrolidine-2-carboxamide], the values for the IC50 at XPNPEP1 and on recombinant human PEPD were 11 µM and 4 µM, respectively.
Taken in the same sequence, the figures for `CC(C)CCNC(=O)[C@H](CC(C)C)NC(=O)[C@@H]1CCCN1C(=O)[C@@H](O)[C@H](N)CC(C)C` [CQ110, (S)-1-((2S,3R)-3-amino-2-hydroxy-5-methylhexanoyl)-N—((S)-1-(isopentylamino)-4-methyl-1-oxopentan-2-yl)pyrrolidine-2-carboxamide] were 14 µM and 1.5 µM.
On the same counts, the results for `CONC(=O)[C@H](CC(C)C)NC(=O)[C@@H]1CCCN1C(=O)[C@@H](O)[C@H](N)CC(C)C` [CQ111, (S)-1-((2S,3R)-3-amino-2-hydroxy-5-methylhexanoyl)-N—((S)-1-(methoxyamino)-4-methyl-1-oxopentan-2-yl)pyrrolidine-2-carboxamide] are 84 µM and 14 µM.
On the same counts, the results for `CC(C)C[C@H](NC(=O)[C@@H]1CCCN1C(=O)[C@@H](O)[C@H](N)CC(C)C)C(=O)N1CCC1` [CQ112, (S)-1-((2S,3R)-3-amino-2-hydroxy-5-methylhexanoyl)-N—((S)-1-(azetidin-1-yl)-4-methyl-1-oxopentan-2-yl)pyrrolidine-2-carboxamide] are 95 µM and 66 µM.
As to `CC(C)C[C@H](NC(=O)[C@@H]1CCCN1C(=O)[C@@H](O)[C@H](N)CC(C)C)C(=O)NS(=O)(=O)N(C)C` [CQ113, (S)-1-((2S,3R)-3-amino-2-hydroxy-5-methylhexanoyl)-N—((S)-1-((N,N-dimethylsulfamoyl)-amino)-4-methyl-1-oxopentan-2-yl)pyrrolidine-2-carboxamide], the values for the half-maximal inhibitory concentration (IC50) against XPNPEP1 and on recombinant human PEPD were 2.9 µM and 0.56 µM, respectively.
Turning to `CC(C)C[C@H](NC(=O)[C@@H]1CCCN1C(=O)[C@@H](O)[C@H](N)CC(C)C)C(=O)NCCF` [CQ114, (S)-1-((2S,3R)-3-amino-2-hydroxy-5-methylhexanoyl)-N—((S)-1-((2-fluoroethyl)amino)-4-methyl-1-oxopentan-2-yl)pyrrolidine-2-carboxamide], the values for the IC50 at XPNPEP1 and on recombinant human PEPD were 7 µM and 0.72 µM, respectively.
On the same counts, the results for `CC(C)C[C@H](NC(=O)[C@@H]1CCCN1C(=O)[C@@H](O)[C@H](N)CC(C)C)C(=O)NC(C)(C)C` [CQ115, (S)-1-((2S,3R)-3-amino-2-hydroxy-5-methylhexanoyl)-N—((S)-1-(tert-butylamino)-4-methyl-1-oxopentan-2-yl)pyrrolidine-2-carboxamide] are 14 µM and 3.7 µM.
Taken in the same sequence, the figures for `CC(C)C[C@H](NC(=O)[C@@H]1CCCN1C(=O)[C@@H](O)[C@H](N)CC(C)C)C(=O)NCCc1ccc2ccccc2c1` [CQ117, (S)-1-((2S,3R)-3-amino-2-hydroxy-5-methylhexanoyl)-N—((S)-4-methyl-1-((2-(naphthalen-2-yl)ethyl)amino)-1-oxopentan-2-yl)pyrrolidine-2-carboxamide] were 2.2 µM and 7.6 µM.
On the same counts, the results for `CC(C)C[C@H](NC(=O)[C@@H]1CCCN1C(=O)[C@@H](O)[C@H](N)CC(C)C)C(=O)NCCc1ccc(-c2ccccc2)cc1` [CQ119, (S)—N—((S)-1-((2-([1,1′-biphenyl]-4-yl)ethyl)amino)-4-methyl-1-oxopentan-2-yl)-1-((2S,3R)-3-amino-2-hydroxy-5-methylhexanoyl)pyrrolidine-2-carboxamide] are 1.7 µM and 14 µM.
